# Experimental data taken from the supplement of paper PMC11451515.
# Key:
# Test in all cases: AUC of viability dose-response curve (% viability x log10 dose units); higher = less sensitive
# Conditions in all cases: 48 h
# NOMO1 = tested on: NOMO1
# How it was run: (§1)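 Leukemia cells adapted to each medium were seeded in 1536-well plates (500 or 1000 cells/well). They were dosed with library compounds in DMSO at 11 threefold doses, 47 μM to 0.79 nM, for 48 h at 37°C. CellTiter-Glo One luminescence was normalised per plate to DMSO and cell-free wells. Area under the curve was integrated by trapezoidal rule over log10 doses on a four-parameter log-logistic fit; curves exceeding full viability were scaled and curves failing quality control removed.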
# SEM cells = tested on: SEM cells
# How it was run: as §1
# P12-Ichikawa = tested on: P12-Ichikawa
# How it was run: as §1
# [1] = RPMI 5 mM glucose + 10% dialyzed FBS
SMILES,AUC of viability dose-response curve (NOMO1; HPLM + 10% dialyzed FBS),AUC of viability dose-response curve (NOMO1; RPMI 5 mM glucose + 10% FBS),AUC of viability dose-response curve (NOMO1; [1]),AUC of viability dose-response curve (SEM cells; HPLM + 10% dialyzed FBS),AUC of viability dose-response curve (SEM cells; RPMI 5 mM glucose + 10% FBS),AUC of viability dose-response curve (SEM cells; [1]),AUC of viability dose-response curve (P12-Ichikawa; HPLM + 10% dialyzed FBS),AUC of viability dose-response curve (P12-Ichikawa; RPMI 5 mM glucose + 10% FBS),AUC of viability dose-response curve (P12-Ichikawa; [1])
CN[C@H]1CCC2=CC(=C(OC)C(=C2C/3=C/C=C(OC)\C(=O)/C=C13)OC)OC,205,174,206,159,144,148,151,147,158
COC(=O)C[C@](O)(CCCC(C)(C)O)C(=O)O[C@@H]1C(OC)=CC23CCCN2CCc2cc4c(cc2[C@H]13)OCO4 (some centres not stated),458,466,466,462,452,471,458,458,458
CCOC(=O)c1ccc(OC(=O)CCCCCNC(=N)N)cc1,410,444,437,436,385,418,354,413,407
OC(c1cc(C(F)(F)F)nc2c(C(F)(F)F)cccc12)C1CCCCN1 (configuration not stated),447,453,452,455,453,455,468,458,473
CCN(CC)CCCCNc1ncc2cc(-c3cc(OC)cc(OC)c3)c(NC(=O)NC(C)(C)C)nc2n1,388,459,444,400,393,391,449,406,404
C[C@H]1COC2=C3N1\C=C(C(O)=O)/C(=O)C3=CC(=C2N4CCN(C)CC4)F,426,454,441,398,373,420,427,429,416
COc1cc(OC2CCN(C)CC2)ccc1Nc1ncc2c(n1)n(C1CCCC1)c(=O)n2C,427,373,393,326,346,324,408,380,363
COc1ccc([S+](=O)([O-])N(C(C)=O)c2ccccc2/C=C/c2cc[n+]([O-])cc2)cc1,351,352,356,352,342,351,353,345,370
c1ccc2[nH]c(-c3cscn3)nc2c1,452,474,474,439,419,445,446,470,461
CCC1(c2ccccc2)C(=O)NCNC1=O,442,448,471,441,445,452,471,453,466
C[C@]12CC[C@H]3[C@@H](CC[C@H]4NC(=O)\C=C/[C@]34C)[C@@H]1CC[C@@H]2C(=O)NC5=CC(=CC=C5C(F)(F)F)C(F)(F)F,435,440,461,432,456,442,456,455,452
O=C(O)C1(Cc2cccc(Nc3nccs3)n2)CCC(Oc2cccc(Cl)c2F)CC1 (configuration not stated),381,382,386,370,369,368,356,373,381
NNCCc1ccccc1,433,450,467,444,466,468,465,464,470
CNC(=O)c1ccc(N2C(=S)N(c3cnc(C#N)c(C(F)(F)F)c3)C(=O)C23CCC3)cc1F,419,426,439,447,452,457,470,463,467
CCc1ccc(CCOc2ccc(CC3SC(=O)NC3=O)cc2)nc1 (configuration not stated),448,442,460,444,402,474,450,473,469
CC1=C(C)C(=O)C(C(CCCCCC(=O)O)c2ccccc2)=C(C)C1=O (configuration not stated),334,293,318,301,301,303,387,414,362
CCN1CCN(CC1)CC(=O)NC2=CC=C(C3=C2C4=C(S3)C=CC=C4)C5=C6O\C(=C/C(=O)C6=CC=C5)N7CCOCC7,420,442,432,337,337,338,464,447,453
CC1(C)O[C@@H]2C[C@H]3[C@@H]4C[C@H](F)C5=CC(=O)C=C[C@]5(C)[C@@]4(F)[C@@H](O)C[C@]3(C)[C@]2(C(=O)CO)O1,460,460,457,305,314,291,324,303,272
